For 18 compounds, IC50 results are on record in ChEMBL document CHEMBL1132977 (J Med Chem, 2000).

For this experiment, the target named is Peptidyl-prolyl cis-trans isomerase FKBP1A (Homo sapiens, UniProt P62942, F36V). As to the kind of experiment: Binding affinity for Mutant F36V-FK506 binding protein by competitive assay based on fluorescence polarization. A general note: In fluorescence polarisation assays a small probe gives low polarisation when free and higher when bound to something large.
Sequence of Peptidyl-prolyl cis-trans isomerase FKBP1A (P62942 2-108 F37V limits assumed): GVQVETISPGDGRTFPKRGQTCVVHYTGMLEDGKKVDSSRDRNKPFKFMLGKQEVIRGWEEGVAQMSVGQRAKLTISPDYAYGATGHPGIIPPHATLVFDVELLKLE
By IC50 is commonly meant the concentration that inhibits the measured activity by half. Low values mean higher potency, high ones lower potency. In turn, `COc1ccc(CCC(OC(=O)[C@@H]2CCCCN2C(=O)[C@H](c2cc(OC)c(OC)c(OC)c2)C(C)C)c2cccc(OCC(=O)O)c2)cc1OC` (stereo partly drawn) gave a concentration for half-maximal inhibition (IC50) of 5.8 nM. With `CC[C@H](C(=O)N1CCCC[C@H]1C(=O)O[C@H](CCc1ccc(OC)c(OC)c1)c1cccc(OCC(=O)O)c1)c1cc(OC)c(OC)c(OC)c1` the figure was 1.8 nM; with `COc1ccc(CCC(OC(=O)[C@@H]2CCCCN2C(=O)C(c2ccccc2)c2ccccc2)c2cccc(OCC(=O)O)c2)cc1OC` (stereo partly drawn), 273 nM. Under `COc1ccc(CCC(OC(=O)[C@@H]2CCCCN2C(=O)[C@H](CC2CC2)c2cc(OC)c(OC)c(OC)c2)c2cccc(OCC(=O)O)c2)cc1OC` (stereo partly drawn) stands 126 nM; under `COc1ccc(CCC(OC(=O)[C@@H]2CCCCN2C(=O)[C@@H](C)c2ccccc2)c2cccc(OCC(=O)O)c2)cc1OC` (stereo partly drawn), 94 nM. `CC[C@H](C(=O)N1CCCC[C@H]1C(=O)O[C@H](CCc1ccc(OC)c(OC)c1)c1cccc(OCC(=O)O)c1)c1ccccc1`: the concentration for half-maximal inhibition (IC50) amounted to 40 nM. Under `COc1ccc(CC[C@@H](OC(=O)[C@@H]2CCCCN2C(=O)Cc2ccccc2)c2cccc(OCC(=O)O)c2)cc1OC` stands 1530 nM.

In turn, `C=CC[C@@H](C(=O)N1CCCC[C@H]1C(=O)OC(CCc1ccc(OC)c(OC)c1)c1cccc(OCC(=O)O)c1)c1cc(OC)c(OC)c(OC)c1` (stereo partly drawn) returned an IC50 of 19 nM.

Take `CCC[C@H](C(=O)N1CCCC[C@H]1C(=O)OC(CCc1ccc(OC)c(OC)c1)c1cccc(OCC(=O)O)c1)c1cc(OC)c(OC)c(OC)c1` (stereo partly drawn): the half-inhibitory concentration (IC50) was 3.8 nM. With `COc1ccc(CCC(OC(=O)[C@@H]2CCCCN2C(=O)[C@H](c2ccccc2)C(C)C)c2cccc(OCC(=O)O)c2)cc1OC` (stereo partly drawn) the figure was 150 nM; with `COc1ccc(CCC(OC(=O)[C@@H]2CCCCN2C(=O)[C@@H](CC2CC2)c2cc(OC)c(OC)c(OC)c2)c2cccc(OCC(=O)O)c2)cc1OC` (stereo partly drawn), 4.4 nM; with `CC[C@@H](C(=O)N1CCCC[C@H]1C(=O)OC(CCc1ccc(OC)c(OC)c1)c1cccc(OCC(=O)O)c1)c1ccccc1` (stereo partly drawn), 133 nM. With `COc1ccc(CCC(OC(=O)[C@@H]2CCCCN2C(=O)[C@@H](c2cc(OC)c(OC)c(OC)c2)C(C)C)c2cccc(OCC(=O)O)c2)cc1OC` (stereo partly drawn) the figure was 65 nM; with `COc1ccc(CCC(OC(=O)[C@@H]2CCCCN2C(=O)[C@H](C)c2ccccc2)c2cccc(OCC(=O)O)c2)cc1OC` (stereo partly drawn), 590 nM. Under `CC[C@@H](C(=O)N1CCCC[C@H]1C(=O)OC(CCc1ccc(OC)c(OC)c1)c1cccc(OCC(=O)O)c1)c1cc(OC)c(OC)c(OC)c1` (stereo partly drawn) stands 187 nM; under `CCC[C@@H](C(=O)N1CCCC[C@H]1C(=O)OC(CCc1ccc(OC)c(OC)c1)c1cccc(OCC(=O)O)c1)c1cc(OC)c(OC)c(OC)c1` (stereo partly drawn), 43 nM.

In turn, `C=CC[C@H](C(=O)N1CCCC[C@H]1C(=O)OC(CCc1ccc(OC)c(OC)c1)c1cccc(OCC(=O)O)c1)c1cc(OC)c(OC)c(OC)c1` (stereo partly drawn) had an IC50 of 1.5 nM.

In turn, `COc1ccc(CCC(OC(=O)[C@@H]2CCCCN2C(=O)[C@@H](c2ccccc2)C(C)C)c2cccc(OCC(=O)O)c2)cc1OC` (stereo partly drawn) gave an IC50 of 19 nM.
